What follows are compounds tested on 168753-222-R-J1-PDC complex spheroid viability (assay: Anticancer human tumor 168753-222-R-J1-PDC patient-derived bladder carcinoma cell line growth inhibition [CLK]). Conditions: curve of first compound; second compound 10 µM.
Procedure, shortened: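 Multi-cell-type spheroids combined patient-derived tumor cells with HUVEC endothelial cells and human mesenchymal stem cells. Paired agents were dosed in half-log steps down from about clinical Cmax, or from 10 microM where Cmax was unknown.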
For `COc1cccc2c1C(=O)c1c(O)c3c(c(O)c1C2=O)CC(O)(C(=O)CO)CC3OC1CC(N)C(O)C(C)O1` (stereo unspecified) + CN1CCN(c2cc(C(=O)Nc3cc4cc(-c5cnn(C)c5)ccc4cn3)ccn2)CC1, the IC50 was < 31.6 nM.
`C=CC(=O)N1CCN(c2nc(=O)n(-c3c(C)ccnc3C(C)C)c3nc(-c4c(O)cccc4F)c(F)cc23)C(C)C1` (stereo unspecified) + CNC(=O)c1ccc(Nc2nc(OC3CCCC3)c3c(-c4ccc5nc(C)oc5c4)c[nH]c3n2)c(OC)c1 was tested, and the IC50 was < 31.6 nM.
With `CCCS(=O)(=O)Nc1ccc(F)c(C(=O)c2c[nH]c3ncc(-c4ccc(Cl)cc4)cc23)c1F` + CNC(=O)c1ccc(Nc2nc(OC3CCCC3)c3c(-c4ccc5nc(C)oc5c4)c[nH]c3n2)c(OC)c1 the IC50 was < 31.6 nM.
In the case of `COC1C=CCC(C)C(C)S(=O)(=O)NC(=O)c2ccc3c(c2)N(CC2CCC21)CC1(CCCc2cc(Cl)ccc21)CO3` (stereo unspecified) + CNC(=O)c1ccc(Nc2nc(OC3CCCC3)c3c(-c4ccc5nc(C)oc5c4)c[nH]c3n2)c(OC)c1, the IC50 is reported as < 31.6 nM.

Same assay, conditions: second compound 0.0316 µM; first compound 0.0316 µM; stronger effect = lower value
Compound `COc1ccc([C@@H](O)c2cc(-c3ncnc4cc(N5CCOCC5)ccc34)c(F)cc2Cl)nn1` + CN1CCN(c2cc(C(=O)Nc3cc4cc(-c5cnn(C)c5)ccc4cn3)ccn2)CC1 has a viability, T/C of 95.5%.
In the case of `COc1cccc2c1C(=O)c1c(O)c3c(c(O)c1C2=O)CC(O)(C(=O)CO)CC3OC1CC(N)C(O)C(C)O1` (stereo unspecified) + CN1CCN(c2cc(C(=O)Nc3cc4cc(-c5cnn(C)c5)ccc4cn3)ccn2)CC1, the viability, T/C is reported as 51.4%.
With `C=CC(=O)N1CCN(c2nc(=O)n(-c3c(C)ccnc3C(C)C)c3nc(-c4c(O)cccc4F)c(F)cc23)C(C)C1` (stereo unspecified) + CNC(=O)c1ccc(Nc2nc(OC3CCCC3)c3c(-c4ccc5nc(C)oc5c4)c[nH]c3n2)c(OC)c1 the viability, T/C was 107%.
`CCCS(=O)(=O)Nc1ccc(F)c(C(=O)c2c[nH]c3ncc(-c4ccc(Cl)cc4)cc23)c1F` + CNC(=O)c1ccc(Nc2nc(OC3CCCC3)c3c(-c4ccc5nc(C)oc5c4)c[nH]c3n2)c(OC)c1 showed a viability, T/C of 109%.
With `COC1C=CCC(C)C(C)S(=O)(=O)NC(=O)c2ccc3c(c2)N(CC2CCC21)CC1(CCCc2cc(Cl)ccc21)CO3` (stereo unspecified) + CNC(=O)c1ccc(Nc2nc(OC3CCCC3)c3c(-c4ccc5nc(C)oc5c4)c[nH]c3n2)c(OC)c1 the viability, T/C was 105%.

Same assay, conditions: second compound 0.0316 µM; first compound 0.1 µM; stronger effect = lower value
`COc1ccc([C@@H](O)c2cc(-c3ncnc4cc(N5CCOCC5)ccc34)c(F)cc2Cl)nn1` + CN1CCN(c2cc(C(=O)Nc3cc4cc(-c5cnn(C)c5)ccc4cn3)ccn2)CC1 showed a viability, T/C of 82.1%.
For `COc1cccc2c1C(=O)c1c(O)c3c(c(O)c1C2=O)CC(O)(C(=O)CO)CC3OC1CC(N)C(O)C(C)O1` (stereo unspecified) + CN1CCN(c2cc(C(=O)Nc3cc4cc(-c5cnn(C)c5)ccc4cn3)ccn2)CC1, the viability, T/C was 31.8%.
With `C=CC(=O)N1CCN(c2nc(=O)n(-c3c(C)ccnc3C(C)C)c3nc(-c4c(O)cccc4F)c(F)cc23)C(C)C1` (stereo unspecified) + CNC(=O)c1ccc(Nc2nc(OC3CCCC3)c3c(-c4ccc5nc(C)oc5c4)c[nH]c3n2)c(OC)c1 the viability, T/C was 96.7%.
For `CCCS(=O)(=O)Nc1ccc(F)c(C(=O)c2c[nH]c3ncc(-c4ccc(Cl)cc4)cc23)c1F` + CNC(=O)c1ccc(Nc2nc(OC3CCCC3)c3c(-c4ccc5nc(C)oc5c4)c[nH]c3n2)c(OC)c1, the viability, T/C was 105%.
`COC1C=CCC(C)C(C)S(=O)(=O)NC(=O)c2ccc3c(c2)N(CC2CCC21)CC1(CCCc2cc(Cl)ccc21)CO3` (stereo unspecified) + CNC(=O)c1ccc(Nc2nc(OC3CCCC3)c3c(-c4ccc5nc(C)oc5c4)c[nH]c3n2)c(OC)c1 gave a viability, T/C of 118%.

Same assay, conditions: second compound 0.0316 µM; first compound 0.316 µM; stronger effect = lower value
Work on `COc1ccc([C@@H](O)c2cc(-c3ncnc4cc(N5CCOCC5)ccc34)c(F)cc2Cl)nn1` + CN1CCN(c2cc(C(=O)Nc3cc4cc(-c5cnn(C)c5)ccc4cn3)ccn2)CC1 yielded a viability, T/C of 55.6%.
Compound `COc1cccc2c1C(=O)c1c(O)c3c(c(O)c1C2=O)CC(O)(C(=O)CO)CC3OC1CC(N)C(O)C(C)O1` (stereo unspecified) + CN1CCN(c2cc(C(=O)Nc3cc4cc(-c5cnn(C)c5)ccc4cn3)ccn2)CC1 has a viability, T/C of 23.1%.
With `C=CC(=O)N1CCN(c2nc(=O)n(-c3c(C)ccnc3C(C)C)c3nc(-c4c(O)cccc4F)c(F)cc23)C(C)C1` (stereo unspecified) + CNC(=O)c1ccc(Nc2nc(OC3CCCC3)c3c(-c4ccc5nc(C)oc5c4)c[nH]c3n2)c(OC)c1 the viability, T/C was 111%.
Compound `CCCS(=O)(=O)Nc1ccc(F)c(C(=O)c2c[nH]c3ncc(-c4ccc(Cl)cc4)cc23)c1F` + CNC(=O)c1ccc(Nc2nc(OC3CCCC3)c3c(-c4ccc5nc(C)oc5c4)c[nH]c3n2)c(OC)c1 has a viability, T/C of 113%.
`COC1C=CCC(C)C(C)S(=O)(=O)NC(=O)c2ccc3c(c2)N(CC2CCC21)CC1(CCCc2cc(Cl)ccc21)CO3` (stereo unspecified) + CNC(=O)c1ccc(Nc2nc(OC3CCCC3)c3c(-c4ccc5nc(C)oc5c4)c[nH]c3n2)c(OC)c1 gave a viability, T/C of 101%.

Same assay, conditions: second compound 0.0316 µM; first compound 1 µM; stronger effect = lower value
`COc1ccc([C@@H](O)c2cc(-c3ncnc4cc(N5CCOCC5)ccc34)c(F)cc2Cl)nn1` + CN1CCN(c2cc(C(=O)Nc3cc4cc(-c5cnn(C)c5)ccc4cn3)ccn2)CC1 showed a viability, T/C of 19.2%.
`COc1cccc2c1C(=O)c1c(O)c3c(c(O)c1C2=O)CC(O)(C(=O)CO)CC3OC1CC(N)C(O)C(C)O1` (stereo unspecified) + CN1CCN(c2cc(C(=O)Nc3cc4cc(-c5cnn(C)c5)ccc4cn3)ccn2)CC1 was tested, and the viability, T/C was 6.97%.
In the case of `C=CC(=O)N1CCN(c2nc(=O)n(-c3c(C)ccnc3C(C)C)c3nc(-c4c(O)cccc4F)c(F)cc23)C(C)C1` (stereo unspecified) + CNC(=O)c1ccc(Nc2nc(OC3CCCC3)c3c(-c4ccc5nc(C)oc5c4)c[nH]c3n2)c(OC)c1, the viability, T/C is reported as 128%.
`CCCS(=O)(=O)Nc1ccc(F)c(C(=O)c2c[nH]c3ncc(-c4ccc(Cl)cc4)cc23)c1F` + CNC(=O)c1ccc(Nc2nc(OC3CCCC3)c3c(-c4ccc5nc(C)oc5c4)c[nH]c3n2)c(OC)c1 was tested, and the viability, T/C was 116%.
For `COC1C=CCC(C)C(C)S(=O)(=O)NC(=O)c2ccc3c(c2)N(CC2CCC21)CC1(CCCc2cc(Cl)ccc21)CO3` (stereo unspecified) + CNC(=O)c1ccc(Nc2nc(OC3CCCC3)c3c(-c4ccc5nc(C)oc5c4)c[nH]c3n2)c(OC)c1, the viability, T/C was 87.6%.

Same assay, conditions: second compound 0.0316 µM; first compound 3.16 µM; stronger effect = lower value
With `COc1ccc([C@@H](O)c2cc(-c3ncnc4cc(N5CCOCC5)ccc34)c(F)cc2Cl)nn1` + CN1CCN(c2cc(C(=O)Nc3cc4cc(-c5cnn(C)c5)ccc4cn3)ccn2)CC1 the viability, T/C was 11.7%.
Compound `COc1cccc2c1C(=O)c1c(O)c3c(c(O)c1C2=O)CC(O)(C(=O)CO)CC3OC1CC(N)C(O)C(C)O1` (stereo unspecified) + CN1CCN(c2cc(C(=O)Nc3cc4cc(-c5cnn(C)c5)ccc4cn3)ccn2)CC1 has a viability, T/C of 7.48%.
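Also: viability measured after seven days of drug exposure.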
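For viability, T/C in this document: luminescence signal used as surrogate for viable cell amount; 100% = DMSO vehicle control wells.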
